Experimental data from US9006274B2, “Thiazole derivatives for treating dyskinesias caused by a chemical treatment” (Ipsen Pharma S.A.S., priority 2005, dated 2015).

Legend:
[1] = test system: tardive orofacial dyskinesia caused by haloperidol in rats; assay: Study of tardive dyskinesia in rats treated with a neuroleptic (haloperidol) over a long period, count of tongue protrusions and mastication movements; assay type: in vivo, rat; conditions: for effect on rats suffering from tardive dyskinesia and tardive orofacial dyskinesia caused by haloperidol: oral 10 and 30 mg/kg, dose-dependent effectiveness
Text: Principle of the In Vivo Test (Experimental Model with Rats): […] dyskinesia is a complication resulting from prolonged treatment with for example neuroleptics. It is characterized by repetitive, involuntary movements of the mouth, face and tongue. Long-term treatment with neuroleptics can lead to oromandibular dyskinesia, in particular it can lead to movements of mastication and protrusion of the tongue in rats. The principle of the test is to quantify the abnormal movements of the animals in a test cage during a determined time window (5 minutes). A neuroleptic, haloperidol (originating from Sigma®), is administered over a long period to rats using an Alzet® osmotic pump. This osmotic pump (reference 2ML4 Alzet®) is filled with a solution of haloperidol at 10 mg/ml. This pump is implanted subcutaneously in rats weighing between 150 g and 160 g. After anaesthesia of the rats with isoflurane, a small incision is made in the skin at the level of the scapulae to allow insertion of the pump. Then the incision is sutured. The pump makes it possible to continuously administer haloperidol to the rats at a dose of 2 mg/kg/day for 28 days. […] Before the treatment (t=0) with the compounds to be tested, the rats are placed individually in plastic test cages. […] Results: The rate of protrusion of the tongue and mastication movements is calculated statistically for each group of rats. […] The results presented were obtained with 8 tested animals.

[2] = test system: dyskinesias induced by L-DOPA in rats; assay: Study of dyskinesias induced by L-DOPA (6-OHDA-lesioned dyskinetic rats), score of abnormal and involuntary movements; assay type: in vivo, rat; conditions: for effect on rats suffering from induced dyskinesia: oral 10 and 30 mg/kg, dose-dependent, statistically significant effectiveness
Text: Principle of the In Vivo Test (Experimental Model with Dyskinetic Rats):
An animal model is produced where the dyskinesia is induced in animals treated with L-Dopa (3-(3,4-dihydroxyphenyl)-L-alanine). First of all in order to cause a reduction in the level of endogenous dopamine at the level of the striatum, lesions are produced in the rats using 6-hydroxydopamine (6-OHDA). Following this injection of 6-OHDA, these animals become sensitive to the side-effects of L-dopa. In fact in order to remedy this endogenous dopamine deficiency, the rats receive an L-Dopa based treatment. […] The dyskinesia thus induced is evaluated by a statistical behaviour test.
In fact the L-Dopa passes through the hematoencephalic barrier with difficulty and therefore it can be decarboxylated at the peripheral level.
The study was carried out on young male rats. The rats are anaesthetized (chloral 400 mg/kg). Then they receive 2 stereotaxic injections of 6 μg of 6-hydroxydopamine in the left striatum using a 10 μl Hamilton microsyringe. The rats receive in fine 12 μg of 6-OHDA dissolved in 4 μl of 0.02% L-ascorbate. Four weeks later the lesion to the locus niger is produced in the rats. In order to quantify this lesion, an indirect measurement is used: the rotations induced by apomorphine (substance test). The animals receive a sub-cutaneous injection of 0.5 mg/kg of apomorphine and the right and left rotations of the animals are measured over 30 minutes. A net rotational asymmetry score is then determined. This score is expressed as the number of complete turns in the test cage/minute in the contralateral direction of the lesion.
Six weeks after the 6-hydroxydopamine (6-OHDA) lesions, the selected rats receive a daily intraperitoneal injection of L-Dopa methylester at a dose of 20 mg/kg and benserazide at a dose of 15 mg/kg. The injections take place from week 6 to week 9. From week 10, the rats receive a more concentrated dose: each day they receive an intraperitoneal injection of L-Dopa methylester at a dose of 25 mg/kg and benserazide at a dose of 15 mg/kg. From week 11, the rats receive two daily injections of L-Dopa methylester at a dose of 15 mg/kg and benserazide at a dose of 15 mg/kg. During week 11, the rats are evaluated 3 times per week for their level of abnormal and involuntary movements in order to determine whether the administered doses are sufficient to cause a dyskinesia in these animals. The rats are observed individually from 30 minutes to 180 minutes after injection of the L-Dopa; they are observed every 30 minutes. The movements which are observed at that time are considered to be dyskinetic movements when they meet the following criteria: • the movements are induced by the L-Dopa; • the movements affect the side of the body in the contralateral direction of the lesion; • the movements are repetitive, involuntary and cannot be attributed to normal behaviour.
The abnormal and involuntary movements are classified in 4 sub-types: • locomotive dyskinesia: increase in locomotion of the side contralateral to the lesion; • axial dystonia: deviation of the posture of the neck and of the upper part of the body; • oromandibular dyskinesia: stereotypical movements of the jaws and protrusion of the tongue; • dyskinesia of the anterior limbs: repetitive and rhythmic jerking of the anterior limbs accompanied by a dystonic posture and/or strong grasping movements of the paws.
For each of these sub-types, the rats are marked on a scale of 0 to 4, knowing that: • 0=no movement, • 1=occasional movements, • 2=frequent movements, • 3=continuous movements but interrupted by a sensory distraction, • 4=continuous, acute movements, not interrupted by a sensory distraction.
The compounds according to the invention are tested in order to determine their ability to modulate the effects of the L-Dopa.

[3] = 30 mg/kg orally, 120 minutes after the administration of L-Dopa, control (water) 12 (compound 1) and 12.9 (compound 2)
[4] = 30 mg/kg orally, after 180 minutes of treatment, reduced from 11.3 (compound 1) and from 13.8 (compound 2)

Row | SMILES | rate of protrusion of the tongue ([1]; 10 mg/kg orally, after 3 hours, counted for 5 minutes, reduced from 11.4) | rate of protrusion of the tongue ([1]; 30 mg/kg orally, after 3 hours, counted for 5 minutes, reduced from 15) | number of mastication movements ([1]; 30 mg/kg orally, after 3 hours, counted for 5 minutes, reduced from 35.5) | effect on rats suffering from tardive dyskinesia and tardive orofacial dyskinesia caused by haloperidol [1] | score of abnormal and involuntary movements (dyskinesia score, maximum 16 points) ([2]; 10 mg/kg orally, after 180 minutes of treatment, reduced from 13) [points] | score of abnormal and involuntary movements (dyskinesia score, maximum 16 points) [2, 3] [points] | score of abnormal and involuntary movements (dyskinesia score, maximum 16 points) [2, 4] [points] | effect on rats suffering from induced dyskinesia [2] | score of chewing movements ([1]; 10 mg/kg orally, counted for 5 minutes, reduced from 30.3) | score of chewing movements ([1]; 30 mg/kg orally, counted for 5 minutes, reduced from 35.6)
1 | C[C@@H](N)c1nc(-c2cc(C(C)(C)C)c(O)c(C(C)(C)C)c2)cs1.Cl [Compound 2, 4-{2-[(1R)-1-aminoethyl]-1,3-thiazol-4-yl}-2,6-di-tert-butylphenol hydrochloride] | 5 | 6 | 23.7 | anti-dyskinetic effect | 10.6 | 9.7 | 9 | anti-dyskinetic effect | – | –
2 | CC(C)(C)c1cc(-c2csc(CN)n2)cc(C(C)(C)C)c1O.Cl [Compound 1, 4-[2-(aminomethyl)-1,3-thiazol-4-yl]-2,6-di(tert-butyl)phenol hydrochloride or dihydrochloride] | – | – | – | anti-dyskinetic effect | – | 10 | 9.6 | anti-dyskinetic effect | 21 | 11.9
